Test results: US6537577B1, “Method of prophylaxis for bovine mastitis” (Bio Medical Development Corporation, priority 2001, dated 2003)
Where “and” joins values, the source holds several entries; their conditions need not be identical. Equal entries are not always repeated.

Legend:
[1] = tested on: Staph. aureus ATCC 29740; assay: Excised teat study, preliminary trial; format: cell-based, Staphylococcus aureus; details: for colony count per plate: plates 1-2, count no. 1 and 2
From the text: To evaluate the microbicidal activity of the compositions of EXAMPLE 1 and EXAMPLE 2, basic excised teat models used for these experiments are based on providing procedures by Twomey, A, and M. A Arnold, National Dairy Lab. Report, Ruaburn Agric. Res. Center, Hamilton, New Zealand.
Excess skin and tissue were trimmed, teats were washed in a mild detergent and warm water, rinsed in water, dried, and dipped in 70% ethyl alcohol. Teats were placed in plastic bags in a glycerin and water solution, and subsequently frozen at −20° C. until further use. Frozen teats were thawed in warm water, rinsed in water, dried, and dipped in 70% ethyl alcohol, dried with paper towels, and suspended by metal clips from a glass rod.
The pathogen strain that was used for this study was Staph. aureus ATCC 29740. For preparation of Staph. aureus, five 6-ml tubes of trypticase soy broth (TSB) (Becton Dickinson, Cockeysville, Md.) were inoculated from a culture of Staph. aureus actively growing on trypticase soy agar (TSA) (Becton Dickinson) containing 5% bovine calf blood. These tubes were incubated for 5 to 7 hours at 37° C., and this culture was used to inoculate 250 ml of TSB, which was incubated on a gyratory shaker for 16 hours. After incubation, bacterial cells were pelleted by centrifugation at approximately 7000×g, washed twice in 0.1% proteose peptone (Difco Laboratories, Detroit, Mich.), and resuspended to approximately 200 ml in proteose peptone. Serial dilutions were prepared in proteose peptone, and 0.1 ml was plated on TSA. Plates, were incubated for 24 hours at 37° C. and colonies were counted to determine the microbial concentration of the stock suspension.
(§1) Challenge suspensions of Staph. aureus containing approximately 1×10^8 cfu/ml of each organism (diluted with pasteurized milk) were prepared and used for the excised teat trials. The quenching solution was letheen broth (Difco Laboratories) modified to contain 1% sodium thiosulfate (Sigma Chemical Co., St. Louis, Mo.).
Teats were dipped in a Staph. aereus bacterial suspension to a depth of 15 mm and allowed to drain for 5 minutes. Teats were then dipped into two coating formulations of EXAMPLE 1 and EXAMPLE 2, (Formula No. 3 and Formula No. 5, respectively) to a depth of approximately 30 mm and allowed to drain for 10 minutes. […] The coating was then removed from each teat using a sterile cotton swab by rolling the edge of the softened film using a downward motion toward the teat apex, placed in 5 ml of quencher in sterile blood dilution vials (Baxter Diagnostics, McGaw Park, Ill.), mixed by vortexing for 5 seconds, and after serial dilution, a 0.1-ml aliquot was plated onto TSA. The quenching solution (Bacto-Letheen Broth) was used to inactivate the chlorhexidine germicide and prevent further bacterial killing upon culture. Immediately after the dried coating products were removed from the teats, each teat was rinsed to a total volume of 5 ml of quencher, the rinse collected in sterile blood dilution vials (Baxter Diagnostics) separate from the peelings, mixed by vortexing for 5 seconds, and after serial dilution, a 0.1-ml aliquot was plated to determine the number of organisms remaining on the teat after removal of the coating.

[2] = tested on: Staph. aureus ATCC 29740; assay: Excised teat study, Trial 1; format: cell-based, Staphylococcus aureus
Experimental: (§2) Teats were prepared as described earlier. The pathogen strains that were used for this study were Staph. aureus ATCC 29740 and Strep. Agalactiae ATCC 27956. A culture of Strep. Agalactiae was prepared by thawing a frozen vial of Strep. Agalactiae and plating on a TSA blood plate. After 24 hours incubation at 37° C., five 6-ml tubes of TSB were inoculated with approximately six colonies of Strep. Agalactiae each. These cultures were incubated at 37° C. for approximately 16 hours and then used to inoculate 250 ml of TSB. This culture was incubated on a gyratory shaker for approximately 5.5 hours. Serial dilutions were prepared in proteose peptone, and 0.1 ml was plated on TSA. Plates were incubated for 24 hours at 37° C. and colonies were counted to determine the microbial concentration of the stock suspension.
as §1, with “The dilution required to prepare a challenge inoculum of approximately 1×10^8 colony-forming units (cfu)/ml of Staph. aureus or Strep. […] Challenge” for “Challenge”, “aureus and Strep. Agalactiae” for “aureus”
(§3) Agalactiae, respectively. […] Teats were dipped in the bacterial challenge suspensions once to a depth of approximately 15 mm and allowed to drain for 5 minutes, then dipped with the test products to a depth of approximately 30 mm and drained for an additional 10 minutes. For the challenged, but undipped negative control teats, the drainage time was 15 minutes. […] This coating film peeling from each teat was placed in sterile blood dilution vials (Baxter Diagnostics). Remaining organisms on teat skin were then removed by rinsing each teat with approximately 5 ml of quencher expressed from a polyethylene wash bottle into the same vial containing the coating film peeling. Each vial was vortexed for 5 seconds before plating.
(§4) For all three trials, serial dilutions of peelings or rinses were made in 0.1% proteose peptone, and platinf was in 0.1-ml aliquots on Mannitol Salt agar (Becton Dickinson) for Staph. aureus and TKT/FC agar (Bccton Dickinson) with 0.3% thallium acetate (Sigma Chemical Co.) for Strep. Agalactiae. […] Plates were incubated for 24 hours at 37° C. and colonies were counted. The geometric mean count of the plates was determined, multiplied by […] to express the total volume of rinse, and then multiplied by the dilution factor to yield the total cfu per teat. In cases in which no organisms were recovered from a teat, the value of 0.01 was substituted fro zero in order statistically determine the mean cfu counts.
(§5) The same set of teats was used for each trial. […]

[3] = tested on: Strep. Agalactiae ATCC 27956; assay: Excised teat study, Trial 2; format: cell-based, Streptococcus agalactiae
Experimental: as §2
as §1, with “The dilution required to prepare a challenge inoculum of approximately 1×10^8 colony-forming units (cfu)/ml of Staph. aureus or Strep. […] Challenge” for “Challenge”, “aureus and Strep. Agalactiae” for “aureus”
as §3, §4, §5

[4] = log of total organisms recovered
[5] = of plate counts at the treatment's dilution
[6] = peeling and rinse combined, total cfu per teat

CC(=O)O [2.5% acetic acid, acetic acid]
Total organisms Recovered [1]: 16,029,000
colony count per plate ([1]; Dilution −3): TNTC^1 and TNTC
colony count per plate ([1]; Dilution −4): 327 and 268 and 460 and 262
Log [1, 4]: 7.20
Geometric Mean ([1]; of plate counts, dilution −4): 320.58^3
Log reduction ([1]; versus negative control): 0.44
Log [2, 4]: 6.66
Geometric Mean [2, 5]: 92.41
Total organisms Recovered [2, 6]: 4,620,500
Log reduction ([2]; versus negative control): 0.76
Log [3, 4]: 6.11
Geometric Mean [3, 5]: 25.98
Total organisms Recovered [3, 6]: 1,299,000
Log reduction ([3]; versus negative control): 0.93
